“Also recorded” adds a separate entry of the source. Bridge positions count the residues as written; N and C are the ends. Square brackets hold non-standard residues; d marks the D form. Ends that are not written are not given here. Peptide text beside a SMILES is read from it. I, II: the chains in the order shown. Ac6c = NC1(C(=O)O)CCCCC1; Dab = NCC[C@H](N)C(=O)O; Dap = NC[C@H](N)C(=O)O
Columns and labels:
Escherichia coli 5770 [1] = test: Blood bacterial counts before and after intraperitoneal dosing of infected CD-1 mice (FIGS. 4A, 4B); type: in vivo; conditions: compared with imipenem in the respective assay
From the text: FIGS. 4A and 4B illustrate blood bacterial counts before and after intraperitoneal drug dosing to Escherichia coli 5770 infected CD-1 mice. In FIG. 4A the symbols represent bacterial counts observed for infected and non-treated mice, A3-APO treated mice and imipenem treated mice. In FIG. 4B the symbols represent bacterial counts observed for infected and non-treated mice, Chex1-Arg20-NH2 treated mice and imipenem treated mice. Identical shapes if FIGS. 4A and 4B represent identical timepoints, respectively.
Both A3-APO and Chex1-Arg20 are active in lethal systemic infections. Efficacy is shown in both the increase of survival time and the reduction of blood bacterial counts. FIGS. 4A and 4B show blood bacterial counts before and after intraperitoneal drug dosing to Escherichia coli 5770 infected CD-1 mice. In FIG. 4A the symbols represent bacterial counts observed for infected and non-treated mice, A3-APO treated mice and imipenem treated mice. In FIG. 4B the symbols represent bacterial counts observed for infected and non-treated mice, Chex1-Arg20-NH2 treated mice and imipenem treated mice. Identical shapes if FIGS. 4A and 4B represent identical timepoints, respectively.

[2] = ex vivo blood, protocol of 'Stability of Peptide A3-APO in Whole Blood'; conditions: CD-1 mice, 37° C., up to 120 min
E. coli SEQ102 = conditions: SEQ102, 16 h
From the text: (§1) To investigate the activity of the A3-APO metabolites, Chex1-Arg20 single chain unit and an Arg7-Arg20 common cleavage fragment were synthesized and studied for their ability to kill Enterobacteriaceae strains in undiluted Muller-Hinton broth, a true measure of potential clinical viability (Otvos et al., 2005. J. Med. Chem. 48: 5349-5359). The peptides of the invention were made on a CEM Liberty automated synthesizer with standard Fmoc-chemistry. The peptides were detached from the resin with the carboxyl terminus of the C-terminal Arg residue being in the form of an amino amide, —C(O)—NH2 (“Chex1-Arg20-NH2” and “Arg7-Arg20-NH2”), while still in the microwave chamber, and were purified by RP-HPLC. […] The biological studies carried out on chemically synthesized peptides in this example and succeeding examples were carried out on the C-terminal modified versions of the peptides wherein the C-terminal carboxylic acid function was in the form of an amide, —C(O)—NH2. Antibacterial growth inhibition assays were performed using sterile 96-well polypropylene plates (Nunc F96 microtiter plates) in a final volume of 100 μL as described previously (Cudic et al., 2002. Peptides 23: 271-283). The cell concentrations were estimated by measuring the ultraviolet absorbance at 600 nm and applying the formula cfu/mL=A600(3.8×10^8), where cfu is the number of colony-forming units. Briefly, 50 μL of a suspension of midlogarithmic phase bacterial cultures diluted to 5×10^5 cfu/mL in Muller-Hinton broth (MHB) was added to 50 μL of serially diluted peptides also dissolved in MHB. The final peptide concentration was 128 μg/mL. Cultures were then incubated at 37° C., 5% CO2 for 16-20 h without shaking, and growth inhibition was measured by recording the absorbance at 600 nm using a microplate reader. […] The minimal inhibitory concentration indicates the lowest peptide dose where no visible bacterial growth is detected after 16 hours incubation in full strength Muller-Hinton broth at 37° C. The peptide Chex-pyrr-Dap dimer was also included in the study. […] (Cudic et al., 2002. Peptides 23: 271-283).

S. typhimurium G10215 = conditions: G10215, 16 h
From the text: as §1

E. coli HK179 = conditions: HK179, 16 h
From the text: as §1

[3] = test system: Enterobacteriaceae strains
From the text: as §1

K. pneumoniae HK123 = conditions: HK123, 16 h
From the text: as §1

E. coli D31 = conditions: full strength Muller-Hinton broth, 16 hours, 37° C.
From the text: as §1

[4] = approximately 100 μL retrieved blood (female CD-1 mice retroorbitally bled), ex vivo; conditions: 37° C., up to 30 min
[5] = blood taken from the eye of CD-1 mice injected intravenously with A3-APO; conditions: up to 240 minutes
[6] = test system: extended-spectrum β-lactamase producing E. coli strain (designation 5770); test: Systemic infection model, cisplatin-pretreated CD-1 mice, blood bacterial counts; type: in vivo; conditions: 40 mg/kg ip
Method: As peptide drugs, such as antimicrobial peptides, are predominantly cleared through the kidneys (Klootwijk et al., 1997. J. Clin. Endocrinol. Metab. 82: 3068-3073) and the kidney functions of mice are 20-fold faster than those of humans, CD-1 female mice of 15-20 g were pretreated with 18 mg/kg cisplatin for 3 days to impair kidney clearance similar to the levels observed in humans (Mathe et al., 2006. Lab. Anim. 40: 296-300) before they were challenged intraperitoneally (ip) with 10^8 CFU per g mouse of an extended-spectrum β-lactamase producing E. coli strain (designation 5770). Four, 8 and 12 hours after challenge 10 or 20 mg/kg peptide Chex1-Arg20 or 40 mg/kg imipenem (as a positive control) were administered ip to 10 mice in each group. Imipenem is a broad spectrum β-lactam antibiotic. Prior to drug administration at all three timepoints, blood was taken from the tail vein of 3-5 mice for determining blood bacterial counts. […] Antimicrobials were administered ip 4 hours after challenge 3 times in 4 hour intervals. Blood was taken immediately before antimicrobial treatments. Numbers in parentheses indicate the number of mice with <10^3 CFU/mL. Bacterial counts were determined 10 times from different dilution of blood from 5 mice in each group in each timepoints.

Escherichia coli 5770 [7] = test: Mouse survival after last dose, systemic infection model without cisplatin pretreatment; type: in vivo; conditions: 40 mg/kg
Method: The survival rate and the dynamics of survival of mice after the last dose of an antibacterial peptide treatment (12 hours post-infection) were measured in a mouse model of Escherichia coli 5770 systemic infection. In this particular study, the animals were not pretreated with cisplatin. Ten animals were used in each group. […] In the control (infected, non-treated) and the imipenem treated rows, the first numbers reflect the number of surviving animals on the day of assay measuring the efficacy of the Chex1-Arg20 and the second numbers are the surviving control animals on the day of the A3-APO efficacy assay.

For “Chex-Arg-Pro-Asp-Lys-Pro-Arg-Pro-Tyr-Leu-Pro-Arg-Pro-Arg--Pro-Pro-Arg-Pro-Val-Arg-NH2 ([Ac6c]RPDKPRPYLPRPRPPRPVR-NH2) [Chex1-Arg20-NH2]”, the “reduction of blood bacterial counts” value (Escherichia coli 5770 [1]) was “reduced the bacterial counts to levels identical to those observed after imipenem treatment”.
With “Chex-Arg-Pro-Asp-Lys-Pro-Arg-Pro-Tyr-Leu-Pro-Arg-Pro-Arg-Pro-Pro-Arg-Pro-Val-Arg” the cleaved bond [2] was “Val19-Arg20”.
For `CC[C@H](C)[C@H](NC(=O)[C@@H]1CCCN1C(=O)[C@H](CCCNC(=N)N)NC(=O)[C@@H]1CCCN1C(=O)[C@@H]1CCCN1C(=O)[C@@H](NC(=O)[C@@H]1CCCN1C(=O)[C@H](CCCNC(=N)N)NC(=O)[C@@H]1CCCN1C(=O)[C@H](CC(C)C)NC(=O)[C@H](Cc1ccc(O)cc1)NC(=O)[C@H](CO)NC(=O)CNC(=O)[C@H](CCCCN)NC(=O)[C@H](CC(=O)O)NC(=O)C1(N)CCCCC1)[C@@H](C)O)C(=O)N[C@@H](Cc1ccc(O)cc1)C(=O)N[C@@H](CC(N)=O)C(=O)N[C@@H](CCCNC(=N)N)C(=O)NC[C@H](NC(=O)[C@H](CCCNC(=N)N)NC(=O)[C@H](CC(N)=O)NC(=O)[C@H](Cc1ccc(O)cc1)NC(=O)[C@@H](NC(=O)[C@@H]1CCCN1C(=O)[C@H](CCCNC(=N)N)NC(=O)[C@@H]1CCCN1C(=O)[C@@H]1CCCN1C(=O)[C@@H](NC(=O)[C@@H]1CCCN1C(=O)[C@H](CCCNC(=N)N)NC(=O)[C@@H]1CCCN1C(=O)[C@H](CC(C)C)NC(=O)[C@H](Cc1ccc(O)cc1)NC(=O)[C@H](CO)NC(=O)CNC(=O)[C@H](CCCCN)NC(=O)[C@H](CC(=O)O)NC(=O)C1(N)CCCCC1)[C@@H](C)O)[C@@H](C)CC)C(=O)N[C@@H](CNC(C)=O)C(N)=O` [Chex-pyrr-Dap dimer] (I: H-[Ac6c]DKGSYLPRPTPPRPIYNR[Dap][Dap](Ac)-NH2 / II: H-[Ac6c]DKGSYLPRPTPPRPIYNR; amide I:20-II:C; N-terminus assumed), the “MIC against E. coli SEQ102” value (E. coli SEQ102) was >64 µg/mL, the “MIC against S. typhimurium G10215” value (S. typhimurium G10215) was >64 µg/mL and the “MIC against E. coli HK179” value (E. coli HK179) was >64 µg/mL. The “activity in full-strength Muller-Hinton broth” value ([3]; negative control) was “without significant activity” and the “MIC against K. pneumoniae HK123” value (K. pneumoniae HK123) was >64 µg/mL.
In the case of “RPYLPRPRPPRPVR-NH2 [Arg7-Arg20, Arg-Pro-Tyr-Leu-Pro-Arg-Pro-Arg-Pro-Pro-Arg-Pro-Val-Arg]”, the “MIC against E. coli D31” value (E. coli D31) is reported as >64 µg/mL, the “MIC against E. coli SEQ102” value (E. coli SEQ102) is reported as >64 µg/mL and the “MIC against S. typhimurium G10215” value (S. typhimurium G10215) is reported as >64 µg/mL. The “MIC against E. coli HK179” value (E. coli HK179) was >64 µg/mL, the “MIC values against the test strain” value [3] was > 64 µg/mL and the “MIC against K. pneumoniae HK123” value (K. pneumoniae HK123) was >64 µg/mL.
With “(SEQ ID NO: 2)2-Dab (I: [Ac6c]RPDKPRPYLPRPRPPRPVR[Dab] / II: [Ac6c]RPDKPRPYLPRPRPPRPVR; amide I:21-II:C (inferred))” the fragment found [4] was “Chex1-Val19; Chex-Arg-Pro-Asp-Lys-Pro-Arg-Pro-Tyr-Leu-Pro-Arg-Pro-Arg-Pro-Pro-Arg-Pro-Val (SEQ ID NO: 4), 30 min; also recorded: Chex1-Dab21; Chex-Arg-Pro-Asp-Lys-Pro-Arg-Pro-Tyr-Leu-Pro-Arg-Pro-Arg-Pro-Pro-Arg-Pro-Val-Arg-Dab (SEQ ID NO: 7), 30 min” and the fragment found [5] was “Chex1-Arg20; Chex-Arg-Pro-Asp-Lys-Pro-Arg-Pro-Tyr-Leu-Pro-Arg-Pro-Arg-Pro-Pro-Arg-Pro-Val-Arg (SEQ ID NO: 2), major, 5 minutes”.
With `C[C@@H](O)[C@H]1C(=O)N2C(C(=O)O)=C(SCCN=CN)C[C@H]12` [Imipenem, reference compound] the “Bacterial counts in blood after inoculation/challenge” value ([6]; 4 h (blood taken before first dose)) was 3.2 × 10^5 CFU/mL, the “Bacterial counts in blood after inoculation/challenge” value ([6]; 8 h) was 3.7 × 10^3 CFU/mL and the “Bacterial counts in blood after inoculation/challenge” value ([6]; 12 h) was < 1.2 × 10^3 CFU/mL. For the same compound, the “number of surviving mice (10 animals each)” value (“number of surviving mice” below) (Escherichia coli 5770 [7]; 0 h after last dose, day of the A3-APO assay) was 9, the “number of surviving mice” value (Escherichia coli 5770 [7]; 0 h after last dose, day of the Chex1-Arg20 assay) was 10 and the “number of surviving mice” value (Escherichia coli 5770 [7]; 3 h after last dose, day of the A3-APO assay) was 9. For the same compound, the “number of surviving mice” value (Escherichia coli 5770 [7]; 3 h after last dose, day of the Chex1-Arg20 assay) was 10, the “number of surviving mice” value (Escherichia coli 5770 [7]; 6 h after last dose, day of the A3-APO assay) was 9 and the “number of surviving mice” value (Escherichia coli 5770 [7]; 6 h after last dose, day of the Chex1-Arg20 assay) was 10. The “number of surviving mice” value (Escherichia coli 5770 [7]; 9 h after last dose, day of the A3-APO assay) was 9, the “number of surviving mice” value (Escherichia coli 5770 [7]; 9 h after last dose, day of the Chex1-Arg20 assay) was 10 and the “number of surviving mice” value (Escherichia coli 5770 [7]; 12 h after last dose, day of the A3-APO assay) was 9. For the same compound, the “number of surviving mice” value (Escherichia coli 5770 [7]; 12 h after last dose, day of the Chex1-Arg20 assay) was 10.

— US8492515B2 (priority 2008, dated 2013)
